These results are taken from PubChem BioAssay AID1224920 (Broad Institute, 2016).

Where “and” joins values, the source holds several entries; their conditions need not be identical. Identical values can stand only once. Calls of active or inactive are those of the source.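 Rule for the calls: active = IC50 no higher than ten times the top tested dose; inconclusive = flat fit with 30 to 70% inhibition, or poor fit; inactive = IC50 above ten times the top dose.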 Some results are limits rather than exact numbers.

The experiment deals with Clostridium difficile clinical isolate growth, OD600, 24 h. Briefly: growth modulation of Clostridium difficile isolate – OD600, 9-point, retest, dose response (AID 1224920).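 Note: inhibitors lower culture turbidity so OD600 falls.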
As to `O=C(Nc1ccccc1F)N1CCCCN2[C@H](CO)[C@@H](c3ccc(/C=C/c4ccccc4)cc3)[C@H]2C1`, the half-maximal inhibitory concentration (IC50) is 21.7 µM.
With `O=C(c1cccc(F)c1)N1CCCCN2[C@H](CO)[C@H](c3ccc(/C=C/c4ccccc4)cc3)[C@H]2C1`, the concentration for half-maximal inhibition (IC50) was 140 µM.
On to `O=C(Nc1ccc(C(F)(F)F)cc1)N1[C@@H]2CNC[C@H]1C2c1ccc(-c2ccccc2F)cc1` (some centres not stated), for which the 50% inhibitory concentration (IC50) is 10.3 µM and 83.8 µM.
`COc1ccc(C#Cc2ccc([C@@H]3[C@H](CO)N4CCCCN(C(=O)Nc5cccc(F)c5)C[C@@H]34)cc2)cc1`: the IC50 was 7.68 µM.
On to `COc1cccc(CN2C[C@@H]3N[C@H](C2)C3c2ccc(-c3cccc(C#N)c3)cc2)c1` (some centres not stated), for which the 50% inhibitory concentration (IC50) was 75.5 µM and 30.6 µM.
`Cc1ccccc1-c1ccc(C2[C@@H]3CN(C(=O)NC4CCCCC4)C[C@H]2N3)cc1` (some centres not stated): the concentration for half-maximal inhibition (IC50) is 57.7 µM.
The result for `Cc1ccc(-c2ccc([C@@H]3[C@@H](CO)N4CCCCN(C(=O)c5ccc(F)cc5)C[C@H]34)cc2)cc1` reads 34.4 µM; that for `COc1cccc(S(=O)(=O)N2[C@@H]3CNC[C@H]2C3c2ccc(/C=C/c3ccccc3)cc2)c1` (some centres not stated), 23.9 µM.
Take `COc1ccc(NC(=O)N2CCCCN3[C@H](CO)[C@H](c4ccc(C#Cc5ccccc5)cc4)[C@H]3C2)cc1`: the IC50 was 27.5 µM.
As to `COc1cccc(-c2ccc(C3[C@H]4CNC[C@@H]3N4Cc3cc(F)ccc3F)cc2)c1` (some centres not stated), the IC50 is 30 µM.
Regarding `Fc1ccc(F)c(CN2[C@@H]3CNC[C@H]2C3c2ccc(-c3ccccc3)cc2)c1` (some centres not stated), the IC50 is 44.8 µM.
On to `Cc1cccc(-c2ccc(C3[C@@H]4CN(C(=O)Nc5ccc(F)cc5)C[C@H]3N4)cc2)c1` (some centres not stated), for which the IC50 was 12.2 µM.
Take `O=C(NC[C@H]1N[C@H](CO)[C@@H]1c1ccc(C2=CCCCC2)cc1)c1ccccc1`: the IC50 was 58.2 µM.
The result for `Cc1ccc(-c2ccc([C@H]3[C@@H](CO)N4CCCCN(C(=O)Nc5cccc(F)c5)C[C@H]34)cc2)cc1` reads 4.44 µM; that for `COc1ccccc1S(=O)(=O)N1[C@@H]2CNC[C@H]1C2c1ccc(/C=C/c2ccccc2)cc1` (some centres not stated), 63.2 µM.
In the case of `Cc1ccc(-c2ccc(C3[C@@H]4CN(S(=O)(=O)c5cccc(C)c5)C[C@H]3N4)cc2)cc1` (some centres not stated), the IC50 is 8.64 µM.
The result for `O=C(Nc1ccccc1)N1C[C@@H]2N[C@H](C1)C2c1ccc(-c2ccccc2)cc1` (some centres not stated) reads 59.7 µM; that for `COc1ccc(C#Cc2ccc([C@@H]3[C@H](CO)N4CCCCN(Cc5ccccc5F)C[C@@H]34)cc2)cc1`, 8.12 µM.
On to `OC[C@@H]1[C@H](c2ccc(C3=CCCCC3)cc2)[C@@H]2CN(CCC(F)(F)F)CCCCN12`, for which the 50% inhibitory concentration (IC50) was 34.9 µM.
For the molecule `COc1ccc2c3c(n(C)c2c1)[C@@H](CO)NCC31CN(Cc2ccc(Cl)cc2)C1`, the concentration for half-maximal inhibition (IC50) was 50 µM.
On to `Cc1ccccc1-c1ccc([C@H]2[C@@H](CO)N3CCCCN(C(=O)Nc4cccc(F)c4)C[C@H]23)cc1`, for which the IC50 is 10.6 µM.
For the molecule `O=C(NC[C@H]1N[C@H](CO)[C@@H]1c1ccc(C2=CCCCC2)cc1)c1ccc(F)cc1`, the IC50 was 29.1 µM.
For the molecule `Cc1ccc(-c2ccc(C3[C@H]4CNC[C@@H]3N4C(=O)Nc3ccc(F)cc3)cc2)cc1` (some centres not stated), the concentration for half-maximal inhibition (IC50) was 64.4 µM.
For `O=C(Nc1ccccc1)N1CCCCN2[C@H](CO)[C@@H](c3ccc(C#Cc4ccccc4)cc3)[C@H]2C1` the value was 33.5 µM; for `Cc1ccc(-c2ccc(C3[C@@H]4CN(C(=O)Nc5ccc(C(F)(F)F)cc5)C[C@H]3N4)cc2)cc1` (some centres not stated), 4.49 µM and 2.49 µM; for `CC(C)CC#Cc1ccc([C@H]2[C@@H](CO)N3CCCCN(C(=O)Nc4ccccc4)C[C@H]23)cc1`, 12.8 µM.
Consider `CC(C)CC#Cc1ccc([C@@H]2[C@H](CO)N3CCCCN(C(=O)Nc4ccccc4)C[C@@H]23)cc1`, for which the IC50 was 13.1 µM.
The result for `N#Cc1cccc(-c2ccc(C3[C@@H]4CN(Cc5ccccc5)C[C@H]3N4)cc2)c1` (some centres not stated) reads 79.6 µM.
On to `CCCC#Cc1ccc([C@H]2[C@H](CO)N3CCCCN(S(=O)(=O)c4ccccc4C)C[C@@H]23)cc1`, for which the IC50 is > 240 µM (inactive).
The result for `COc1cccc(CN2C[C@@H]3N[C@H](C2)C3c2ccc(-c3ccccc3F)cc2)c1` (some centres not stated) reads 9.26 µM and 6.5 µM.
In the case of `OC[C@@H]1[C@H](c2ccc(C#CC3CCCC3)cc2)[C@H]2CN(CCC(F)(F)F)CCCCN12`, the IC50 is 26.6 µM.
With `O=C(C[C@H]1CC[C@H]2[C@@H](COC[C@@H](O)CN2C(=O)Nc2ccc(C(F)(F)F)cc2)O1)NCC1CCCCC1`, the IC50 is 6.01 µM.
As for `O=C(NC[C@H]1N[C@H](CO)[C@@H]1c1ccc(C2=CCCC2)cc1)c1ccccc1`, the 50% inhibitory concentration (IC50) was 69.4 µM.
The result for `O=S(=O)(c1ccccc1F)N1C[C@@H]2N[C@H](C1)C2c1ccc(/C=C/c2ccccc2)cc1` (some centres not stated) reads 19.4 µM; that for `O=C(Nc1cccc(F)c1)N1CCCCN2[C@@H](CO)[C@H](c3ccc(-c4ccccc4F)cc3)[C@@H]2C1`, 33.6 µM.
With `Cc1ccc(-c2ccc(C3[C@@H]4CN(Cc5cccc(F)c5)C[C@H]3N4)cc2)cc1` (some centres not stated), the IC50 is 2.8 µM and 12.6 µM.
On to `OC[C@@H]1[C@H](c2ccc(-c3ccccc3)cc2)[C@@H]2CN(CCC(F)(F)F)CCCCN12`, for which the concentration for half-maximal inhibition (IC50) was 56.6 µM.
For `Cc1ccc(-c2ccc([C@@H]3[C@H](CO)N4CCCCN(C(=O)c5ccc(F)cc5)C[C@@H]34)cc2)cc1` the value was 24.3 µM; for `O=C(C1CCCCC1)N1C[C@@H]2N[C@H](C1)C2c1ccc(-c2cccc(F)c2)cc1` (some centres not stated), 67.8 µM; for `O=C(c1ccccc1)N1CC[C@@H]2[C@H]1c1cc(-c3ccc(F)cc3)ccc1N[C@@H]2CO`, 129 µM.
For `O=C(C[C@H]1CC[C@H]2[C@@H](COC[C@@H](O)CN2C(=O)Nc2ccc(Cl)c(Cl)c2)O1)NC1CCC1` the value was 19.4 µM.
Consider `Cc1ccccc1-c1ccc(C2[C@@H]3CN(C(=O)Nc4ccc(F)cc4)C[C@H]2N3)cc1` (some centres not stated), for which the IC50 was 40.5 µM.
For `Cc1ccccc1-c1ccc(C2[C@@H]3CN(S(=O)(=O)c4ccccc4)C[C@H]2N3)cc1` (some centres not stated) the value was 56.1 µM; for `OC[C@@H]1Nc2ccc(-c3ccc(F)cc3)cc2[C@H]2[C@@H]1CCN2Cc1ccc(F)cc1`, 90.2 µM; for `COc1ccccc1-c1ccc(C2[C@@H]3CN(Cc4cccc(F)c4)C[C@H]2N3)cc1` (some centres not stated), 6.88 µM.
Consider `O=C(C[C@H]1CC[C@H]2[C@@H](COC[C@H](O)CN2C(=O)Nc2ccc(Cl)c(Cl)c2)O1)NC1CCC1`, for which the half-inhibitory concentration (IC50) is 3.65 µM.
The result for `COc1cccc(-c2ccc(C3[C@@H]4CN(C(=O)c5ccc(F)cc5)C[C@H]3N4)cc2)c1` (some centres not stated) reads 65.4 µM.
Consider `Cc1ccccc1-c1ccc(C2[C@H]3CNC[C@@H]2N3C(=O)Nc2ccc(C(F)(F)F)cc2)cc1` (some centres not stated), for which the IC50 is 17.4 µM.
On to `O=C(C[C@@H]1CC[C@@H]2[C@H](COC[C@H](O)CN2C(=O)Nc2cc(Cl)cc(Cl)c2)O1)N1CCOCC1`, for which the IC50 was 20.4 µM.
Consider `O=C(C1CCCCC1)N1C[C@@H]2N[C@H](C1)C2c1ccc(-c2ccccc2F)cc1` (some centres not stated), for which the IC50 is 55.9 µM.
On to `Cc1ccccc1-c1ccc(C2[C@@H]3CN(C(=O)C4CCCCC4)C[C@H]2N3)cc1` (some centres not stated), for which the concentration for half-maximal inhibition (IC50) is 60.7 µM.
With `O=C(C[C@H]1CC[C@H]2[C@@H](COC[C@H](O)CN2C(=O)Nc2ccc(C(F)(F)F)cc2)O1)NC1Cc2ccccc2C1`, the IC50 was 3.82 µM.
For `CCCNC(=O)C[C@H]1CC[C@@H]2[C@H](COC[C@@H](O)CN2C(=O)Nc2ccc(Cl)c(Cl)c2)O1` the value was 20.9 µM; for `COc1cccc(S(=O)(=O)N2C[C@@H]3N[C@H](C2)C3c2ccc(-c3ccccc3C)cc2)c1` (some centres not stated), 28.6 µM.
With `O=C(Nc1ccc(F)cc1)N1[C@@H]2CNC[C@H]1C2c1ccc(-c2ccccc2)cc1` (some centres not stated), the IC50 was 83.6 µM.
`O=C(C[C@H]1CC[C@H]2[C@@H](COC[C@H](O)CN2C(=O)Nc2cc(Cl)cc(Cl)c2)O1)N1CCOCC1`: the IC50 is 15 µM.
On to `OC[C@@H]1Nc2ccc(C#Cc3cccc(F)c3)cc2[C@H]2NCC[C@@H]12`, for which the IC50 was 38.3 µM.
As for `COc1cccc(CN2C[C@@H]3N[C@H](C2)C3c2ccc(-c3ccccc3OC)cc2)c1` (some centres not stated), the IC50 was 34.1 µM.
The result for `Cc1ccc(-c2ccc([C@@H]3[C@H](CO)N4CCCCN(C(=O)Nc5cccc(F)c5)C[C@@H]34)cc2)cc1` reads 6.52 µM; that for `O=C(NC[C@H]1N[C@H](CO)[C@@H]1c1ccc(C2=CCCCC2)cc1)c1cccc(F)c1`, 58.8 µM.
As for `COc1ccccc1NC(=O)N1CCCCN2[C@H](CO)[C@H](c3ccc(-c4ccc(C)cc4)cc3)[C@H]2C1`, the concentration for half-maximal inhibition (IC50) is 14.5 µM.
On to `COc1ccccc1CN1CC[C@@H]2[C@H](CO)Nc3ccc(C#Cc4ccccc4)cc3[C@@H]21`, for which the concentration for half-maximal inhibition (IC50) was 31.2 µM.
As for `COc1cc(CN2[C@@H]3CNC[C@H]2C3c2ccc(-c3ccccc3)cc2)cc(OC)c1` (some centres not stated), the half-maximal inhibitory concentration (IC50) was 14.8 µM.
For `COc1ccccc1C#Cc1ccc2c(c1)[C@H]1[C@H](CCN1C(=O)c1ccc(F)cc1)[C@H](CO)N2`, the IC50 was 0.759 µM.
On to `COc1ccccc1-c1ccc(C2[C@@H]3CN(S(=O)(=O)c4ccccc4C)C[C@H]2N3)cc1` (some centres not stated), for which the IC50 is 28.1 µM.
On to `Cc1ccc(-c2ccc(C3[C@H]4CNC[C@@H]3N4S(=O)(=O)c3ccccc3C)cc2)cc1` (some centres not stated), for which the IC50 is 27.6 µM.
Regarding `O=C(C1CCC1)N1C[C@@H]2N[C@H](C1)C2c1ccc(/C=C/c2ccccc2)cc1` (some centres not stated), the IC50 is 74.4 µM.
Regarding `Cc1ccc(S(=O)(=O)N2C[C@@H]3N[C@H](C2)C3c2ccc(/C=C/c3ccccc3)cc2)cc1` (some centres not stated), the concentration for half-maximal inhibition (IC50) was 4.98 µM.
In the case of `O=C(NC[C@@H]1N[C@@H](CO)[C@H]1c1ccc(C2=CCCCC2)cc1)c1cccc(F)c1`, the half-inhibitory concentration (IC50) is 11.2 µM.
In the case of `O=C(Nc1cccc(F)c1)N1CCCCN2[C@@H](CO)[C@@H](c3ccc(-c4ccccc4F)cc3)[C@@H]2C1`, the IC50 is 13.1 µM.
For `COc1cccc(-c2ccc(C3[C@@H]4CN(S(=O)(=O)Cc5ccccc5)C[C@H]3N4)cc2)c1` (some centres not stated), the IC50 was 52.6 µM.
For `O=C(Nc1ccccc1F)N1CCCCN2[C@H](CO)[C@H](c3ccc(/C=C/c4ccccc4)cc3)[C@H]2C1` the value was 10.4 µM.
Turning to `COc1ccccc1CN1CC[C@@H]2[C@H]1c1cc(C#Cc3ccccc3)ccc1N[C@@H]2CO`, the half-maximal inhibitory concentration (IC50) was 26.2 µM.
In the case of `C/C=C/c1ccc(C2[C@@H]3CN(Cc4ccc5c(c4)OCO5)C[C@H]2N3)cc1` (some centres not stated), the IC50 is 46.3 µM and 55.8 µM.
For the molecule `C/C=C/c1ccc(C2[C@H]3CNC[C@@H]2N3Cc2cc(-c3ccccc3)on2)cc1` (some centres not stated), the IC50 was 32.7 µM.
With `O=C(Nc1ccccc1)N1CCCCN2[C@H](CO)[C@H](c3ccc(C#Cc4ccccc4)cc3)[C@H]2C1`, the half-inhibitory concentration (IC50) was 9.4 µM.
As to `Cc1ccccc1-c1ccc(C2[C@H]3CNC[C@@H]2N3S(=O)(=O)c2ccccc2C)cc1` (some centres not stated), the 50% inhibitory concentration (IC50) is 31.8 µM.
